Source: paper PMC4601051, “Discovery of Indoline-2-carboxamide Derivatives as a New Class of Brain-Penetrant Inhibitors of Trypanosoma brucei” (Journal of Medicinal Chemistry, 2015)
Where two headings read alike, the source gives them in different places.

Key:
[1] = tested on: bloodstream form T. brucei brucei; assay: T. b. brucei whole cell parasite (trypanosome growth) assay; type: cell-based, Trypanosoma brucei brucei; conditions: for EC50: 69 h + 4 h resazurin; for loss in potency: T. b. brucei EC50, compared to 1 (parent)
Procedure: This was conducted as previously described.[27] Cell culture plates were stamped with 1 μL of an appropriate stock concentration of test compound, followed by addition of 200 μL of trypanosome culture (HMI9-T, 10% FCS) to each well at a density of 2000 cells per well (except column 12 receiving media only). […] Potency was carried out using 10-point dose–response curves.

[2] = in vitro; conditions: human
Procedure: Proliferation assays using bloodstream form T. brucei brucei and human MRC-5 fibroblasts were conducted using a modification of the cell viability assay as previously reported.[27],[39]
MRC-5 cells (2000 cells per well) were seeded in 200 μL of DMEM, 10% FCS, and allowed to adhere overnight. One microliter of test compound was added to each well on the day of assay initiation.
The final DMSO level was 0.5% in all cases.

[3] = Microsomal intrinsic clearance (Clint), human; type: in vitro ADME; conditions: human liver microsomes, 0.5 μM compound
Procedure: (§1) Each test compound (0.5 μM) was incubated with pooled female CDI mouse liver microsomes, pooled male Sprague–Dawley rat microsomes, or pooled mixed gender human liver microsomes (Tebu-Bio, UK; 0.5 mg/mL 50 mM potassium phosphate buffer, pH 7.4) and the reaction started with addition of excess NADPH (8 mg/mL, 50 mM potassium phosphate buffer, pH 7.4). Immediately, at time zero, then at 3, 6, 9, 15, and 30 min, an aliquot (50 μL) of the incubation mixture was removed and mixed with acetonitrile (100 μL) to stop the reaction. Internal standard was added to all samples, and the samples were centrifuged at 1825g for 10 min to sediment precipitated protein. The plates were then sealed prior to UPLC/MS/MS analysis using a Quattro Premier XE (Waters Corporation, USA).
(§2) XLfit (IDBS, UK) was used to calculate the exponential decay and consequently the rate constant (k) from the ratio of peak area of test compound to internal standard at each time point.

[4] = Microsomal intrinsic clearance (Clint), mouse; type: in vitro ADME; conditions: mouse liver microsomes, 0.5 μM compound
Procedure: as §1, §2

[5] = Microsomal intrinsic clearance (Clint), rat; type: in vitro ADME; conditions: rat liver microsomes, 0.5 μM compound
Procedure: as §1, §2

[6] = Trypanosoma brucei, mean of two or more determinations, read-out: T. b. brucei EC50
[7] = mean of two or more determinations, read-out: T. b. brucei EC50

CCOc1ccc(OCC(=O)N2c3ccccc3CC2C(=O)NC)cc1 (stereo not shown) [Compound 17]
EC50 [1, 6]: 0.31 µM
EC50 at 69 h ([2]; MRC-5 fibroblasts): > 50 µM

CNC(=O)C1Cc2ccccc2N1C(=O)COc1ccc2ccccc2c1 (stereo not shown) [Compound 18]
EC50 [1, 6]: 2.9 µM
EC50 at 69 h ([2]; MRC-5 fibroblasts): > 50 µM

CNC(=O)C1Cc2ccccc2N1C(=O)COc1cccc(OC)c1 (stereo not shown) [Compound 19]
EC50 [1, 6]: 0.45 µM
EC50 at 69 h ([2]; MRC-5 fibroblasts): > 50 µM

CNC(=O)C1Cc2ccccc2N1C(=O)Cc1cccs1 (stereo not shown) [Compound 20]
EC50 [1, 6]: 0.66 µM
EC50 at 69 h ([2]; MRC-5 fibroblasts): > 50 µM

CNC(=O)C1Cc2ccccc2N1C(=O)Cc1ccccc1 (stereo not shown) [Compound 21]
EC50 [1, 6]: 0.22 µM
EC50 at 69 h ([2]; MRC-5 fibroblasts): > 15 µM

CCNC(=O)C1Cc2ccccc2N1C(=O)COc1cccc(C)c1 (stereo not shown) [Compound 22]
EC50 [1, 6]: 0.65 µM
EC50 at 69 h ([2]; MRC-5 fibroblasts): > 50 µM

CCNC(=O)C1Cc2ccccc2N1C(=O)CCC1CCCC1 (stereo not shown) [Compound 23]
EC50 [1, 6]: 0.99 µM
EC50 at 69 h ([2]; MRC-5 fibroblasts): > 50 µM

Cc1cccc(OCC(=O)N2c3ccccc3CC2C(N)=O)c1 (stereo not shown) [Compound 24]
EC50 [1, 6]: 13 µM
EC50 at 69 h ([2]; MRC-5 fibroblasts): > 50 µM

CC(C)Oc1ccc(C(=O)N2c3ccccc3CC2C(N)=O)cc1 (stereo not shown) [Compound 25]
EC50 [1, 6]: > 50 µM
EC50 at 69 h ([2]; MRC-5 fibroblasts): > 50 µM

CNC(=O)C1Cc2ccccc2N1C(=O)COCc1ccccc1 (stereo not shown) [Compound 28]
loss in potency [1]: ~70 fold
EC50 [1, 6]: 1.9 µM
EC50 at 69 h ([2]; MRC-5 fibroblasts): > 50 µM

CNC(=O)C1Cc2ccccc2N1C(=O)COc1ccc(Cl)c(F)c1 (stereo not shown) [Compound 29]
microsomal intrinsic clearance, human [3]: 3.3 mL min^–1 g^–1
EC50 [1, 6]: 0.03 µM
EC50 at 69 h ([2]; MRC-5 fibroblasts): > 50 µM
mouse microsomal intrinsic clearance [4]: 4.4 mL min^–1 g^–1
microsomal intrinsic clearance, rat [5]: 13.5 mL min^–1 g^–1

CNC(=O)C1Cc2ccccc2N1C(=O)COc1ccc(Cl)c(Cl)c1 (stereo not shown) [Compound 30]
loss in potency [1]: 15 fold
EC50 [1, 6]: 0.4 µM
EC50 at 69 h ([2]; MRC-5 fibroblasts): > 50 µM
mouse microsomal intrinsic clearance [4]: 9.1 mL min^–1 g^–1

CNC(=O)C1Cc2ccccc2N1C(=O)COc1ccccc1 (stereo not shown) [Compound 31]
microsomal intrinsic clearance, human [3]: 1.4 mL min^–1 g^–1
EC50 [1, 6]: 0.04 µM
EC50 at 69 h ([2]; MRC-5 fibroblasts): > 50 µM
mouse microsomal intrinsic clearance [4]: 6.9 mL min^–1 g^–1
microsomal intrinsic clearance, rat [5]: 9.0 mL min^–1 g^–1

CNC(=O)C1Cc2ccccc2N1C(=O)COc1ccc(C)cc1 (stereo not shown) [Compound 34]
microsomal intrinsic clearance, human [3]: 2.4 mL min^–1 g^–1
EC50 [1, 6]: 0.03 µM
EC50 at 69 h ([2]; MRC-5 fibroblasts): > 50 µM
mouse microsomal intrinsic clearance [4]: 6.5 mL min^–1 g^–1
microsomal intrinsic clearance, rat [5]: 47 mL min^–1 g^–1

CNC(=O)[C@H]1Cc2ccccc2N1C(=O)COc1ccc(F)cc1 [Compound 36]
microsomal intrinsic clearance, human [3]: 1.3 mL min^–1 g^–1
EC50 [1, 6]: 0.04 µM
EC50 at 69 h ([2]; MRC-5 fibroblasts): > 50 µM
mouse microsomal intrinsic clearance [4]: 1.2 mL min^–1 g^–1
microsomal intrinsic clearance, rat [5]: 4.9 mL min^–1 g^–1

CNC(=O)[C@H]1Cc2ccccc2N1C(=O)COc1ccc(F)c(F)c1 [Compound 37]
EC50 [1, 6]: 0.03 µM
EC50 at 69 h ([2]; MRC-5 fibroblasts): > 50 µM
mouse microsomal intrinsic clearance [4]: 3.2 mL min^–1 g^–1

[2H]c1c([2H])c([2H])c(OCC(=O)N2c3ccccc3C[C@@H]2C(=O)NC)c([2H])c1[2H] [Compound 38]
EC50 [1, 6]: 0.05 µM
EC50 at 69 h ([2]; MRC-5 fibroblasts): > 50 µM

CNC(=O)C1Cc2ccccc2N1C(=O)Cc1cccc2ccccc12 (stereo not shown) [Compound 39]
T. b. brucei potency in words [1]: complete loss of potency
EC50 ([1]; Trypanosoma brucei, read-out: T. b. brucei EC50, mean of two or more determinations): 50 µM
EC50 at 69 h [2]: > 50 µM
mouse microsomal intrinsic clearance [4]: 28 mL min^–1 g^–1

CNC(=O)C1Cc2ccccc2N1C(=O)Cc1ccc(Cl)cc1 (stereo not shown) [Compound 40]
improvement in activity ([1]; T. b. brucei EC50, compared to 21): approximately 3 fold
EC50 [1, 6]: 0.08 µM
EC50 at 69 h ([2]; MRC-5 fibroblasts): > 50 µM
mouse microsomal intrinsic clearance [4]: 4.4 mL min^–1 g^–1

CNC(=O)C1Cc2ccccc2N1C(=O)Cc1ccc(C(C)C)cc1 (stereo not shown) [Compound 41]
EC50 [1, 6]: 0.77 µM
EC50 at 69 h ([2]; MRC-5 fibroblasts): > 50 µM
mouse microsomal intrinsic clearance [4]: 35 mL min^–1 g^–1

CNC(=O)C1Cc2ccccc2N1C(=O)Cc1ccc(C(F)(F)F)cc1 (stereo not shown) [Compound 42]
EC50 [1, 6]: 0.1 µM
EC50 [1, 7]: 0.11 µM
EC50 at 69 h ([2]; MRC-5 fibroblasts): > 50 µM
mouse microsomal intrinsic clearance [4]: 3.0 mL min^–1 g^–1

CNC(=O)C1Cc2ccccc2N1C(=O)Cc1ccc(F)cc1 (stereo not shown) [Compound 43]
EC50 [1, 6]: 0.1 µM
EC50 [1, 7]: 0.11 µM
EC50 at 69 h ([2]; MRC-5 fibroblasts): > 50 µM
mouse microsomal intrinsic clearance [4]: 0.8 mL min^–1 g^–1

CNC(=O)C1Cc2ccccc2N1C(=O)Cc1ccc(F)cc1F (stereo not shown) [Compound 44]
EC50 [1, 6]: 2.3 µM
EC50 at 69 h ([2]; MRC-5 fibroblasts): > 50 µM
mouse microsomal intrinsic clearance [4]: 0.5 mL min^–1 g^–1

CNC(=O)[C@H]1Cc2ccccc2N1C(=O)Cc1ccc(Cl)c(F)c1 [Compound 45]
EC50 [1, 6]: 0.08 µM
EC50 at 69 h ([2]; MRC-5 fibroblasts): > 50 µM
mouse microsomal intrinsic clearance [4]: 8.4 mL min^–1 g^–1

CNC(=O)C1Cc2ccccc2N1C(=O)Cc1ccc(F)c(F)c1 (stereo not shown) [Compound 46]
EC50 [1, 6]: 0.11 µM
EC50 at 69 h ([2]; MRC-5 fibroblasts): > 50 µM
mouse microsomal intrinsic clearance [4]: 1.9 mL min^–1 g^–1

CN(C)C(=O)C1Cc2ccccc2N1C(=O)COc1ccc(Cl)cc1 (stereo not shown) [Compound 48]
loss in potency [1]: 200 fold
EC50 [1, 6]: 5.4 µM
EC50 at 69 h ([2]; MRC-5 fibroblasts): > 50 µM

CCNC(=O)C1Cc2ccccc2N1C(=O)COc1ccc(Cl)cc1 (stereo not shown) [Compound 49]
EC50 [1, 6]: 0.09 µM
EC50 at 69 h ([2]; MRC-5 fibroblasts): > 50 µM
mouse microsomal intrinsic clearance [4]: 6.2 mL min^–1 g^–1

CCCCNC(=O)C1Cc2ccccc2N1C(=O)COc1ccc(Cl)cc1 (stereo not shown) [Compound 50]
loss in potency [1]: ~700 fold
EC50 [1, 6]: 19 µM
EC50 at 69 h ([2]; MRC-5 fibroblasts): > 50 µM
mouse microsomal intrinsic clearance [4]: 27 mL min^–1 g^–1

O=C(NC1CC1)C1Cc2ccccc2N1C(=O)COc1ccc(Cl)cc1 (stereo not shown) [Compound 51]
loss in potency [1]: ~14 fold
EC50 [1, 6]: 0.41 µM
EC50 at 69 h ([2]; MRC-5 fibroblasts): > 50 µM
mouse microsomal intrinsic clearance [4]: 5.5 mL min^–1 g^–1

CNC(=O)C1Cc2cc(F)ccc2N1C(=O)COc1ccc(Cl)cc1 (stereo not shown) [Compound 54]
microsomal intrinsic clearance, human [3]: 1.6 mL min^–1 g^–1
EC50 [1, 6]: 0.06 µM
EC50 at 69 h ([2]; MRC-5 fibroblasts): > 50 µM
mouse microsomal intrinsic clearance [4]: 2.8 mL min^–1 g^–1
microsomal intrinsic clearance, rat [5]: 5.3 mL min^–1 g^–1

CNC(=O)[C@H]1Cc2cc(F)ccc2N1C(=O)COc1ccc(F)cc1 [Compound 56]
EC50 [1, 6]: 0.04 µM
EC50 at 69 h ([2]; MRC-5 fibroblasts): > 50 µM

CNC(=O)C1Cc2cc(F)cc(F)c2N1C(=O)COc1ccc(F)cc1 (stereo not shown) [Compound 58]
EC50 [1, 6]: 0.08 µM
EC50 at 69 h ([2]; MRC-5 fibroblasts): > 50 µM
mouse microsomal intrinsic clearance [4]: 2.9 mL min^–1 g^–1

CNC(=O)C1Cc2cc(Br)ccc2N1C(=O)COc1ccc(F)cc1 (stereo not shown) [Compound 60]
EC50 [1, 6]: 0.08 µM
EC50 at 69 h ([2]; MRC-5 fibroblasts): > 50 µM
mouse microsomal intrinsic clearance [4]: 4.6 mL min^–1 g^–1

CNC(=O)C1Cc2cc(-c3ccccc3)ccc2N1C(=O)COc1ccc(F)cc1 (stereo not shown) [Compound 61]
loss in potency [1]: ~10 fold
EC50 [1, 6]: 0.24 µM
EC50 at 69 h ([2]; MRC-5 fibroblasts): > 50 µM
microsomal intrinsic clearance, rat [5]: 25 mL min^–1 g^–1

CNC(=O)C1Cc2cc(-c3ccncc3)ccc2N1C(=O)COc1ccc(F)cc1 (stereo not shown) [Compound 62]
loss in potency [1]: ~10 fold
EC50 [1, 6]: 0.44 µM
EC50 at 69 h ([2]; MRC-5 fibroblasts): > 50 µM

CNC(=O)C1N(C(=O)COc2ccc(Cl)cc2)c2ccccc2C1(C)C (stereo not shown) [Compound 63]
loss in potency [1]: ~34 fold
EC50 [1, 6]: 0.92 µM
EC50 at 69 h ([2]; MRC-5 fibroblasts): > 50 µM
mouse microsomal intrinsic clearance [4]: 14 mL min^–1 g^–1

CNC(=O)C1Cc2ccccc2CN1C(=O)COc1ccc(F)cc1 (stereo not shown) [Compound 66]
EC50 [1, 6]: 37 µM
EC50 at 69 h ([2]; MRC-5 fibroblasts): > 50 µM
